# Results taken from patent publication US8765733B2, “Amine substituted methanesulfonamide derivatives as vanilloid receptor ligands” (Gruenenthal GmbH, priority 2011, dated 2014).
# Target: vanilloid receptor 1 (VR1/TRPV1 receptor) (Homo sapiens, UniProt Q8NER1)
# Test: FLIPR functional assay (Ca2+ influx, capsaicin) on the vanilloid receptor 1
# Format: cell-based
# Details: capsaicin (Cap) stimulus; for Ki: functional (f), Ki from IC50 by Cheng-Prusoff, read-out: (f) Ki (human being) [nM] Cap
Molecule,Ki,also measured
"CCS(=O)(=O)NCc1ccc(C(C)C(=O)NCc2ccc(C(F)(F)F)nc2N2CCCC2)cc1F (centres unmarked) [Example 54, 2-(4-(ethylsulfonamidomethyl)-3-fluorophenyl)-N-((2-(pyrrolidin-1-yl)-6-(trifluoromethyl)pyridin-3-yl)methyl)propanamide]",76 nM,
"NS(=O)(=O)NCc1ccc(CCC(=O)NCc2ccc(C(F)(F)F)nc2N2CCCC2)cc1 [Example 56, 1-{[2-pyrrolidin-1-yl-6-(trifluoromethyl)pyridin-3-yl]methyl}-3-{4-[(sulfamoylamino)methyl]phenyl}propanamide]",38 nM,
"NS(=O)(=O)NCc1ccc(NC(=O)NCc2ccc(C(F)(F)F)nc2N2CCCC2)cc1 [Example 57, 1-{[2-pyrrolidin-1-yl-6-(trifluoromethyl)pyridin-3-yl]methyl}-3-{4-[(sulfamoylamino)methyl]phenyl}urea]",85 nM,
"CC1CCN(c2nc(C(F)(F)F)ccc2CNC(=O)C(C)c2ccc(CNS(N)(=O)=O)cc2)CC1 (centres unmarked) [Example 58, N-((2-(4-methylpiperidin-1-yl)-6-(trifluoromethyl)pyridin-3-yl)methyl)-2-(4-((sulfamoylamino)methyl)phenyl)propanamide]",2 nM,
"CC1CCN(c2nc(C(F)(F)F)ccc2CNC(=O)Nc2ccc(CNS(N)(=O)=O)cc2)CC1 [Example 59, 1-{[2-(4-methylpiperidin-1-yl)-6-(trifluoromethyl)pyridin-3-yl]methyl}-3-{4-[(sulfamoylamino)methyl]phenyl}urea]",1 nM,
"NS(=O)(=O)NCc1ccc(NC(=O)NCc2ccc(C(F)(F)F)nc2N2CCCC2)cc1F [Example 60, 1-{3-fluoro-4-[(sulfamoylamino)methyl]phenyl}-3-{[2-pyrrolidin-1-yl-6-(trifluoromethyl)pyridin-3-yl]methyl}urea]",20 nM,
"CC1CCN(c2nc(C(F)(F)F)ccc2CNC(=O)Nc2ccc(CNS(N)(=O)=O)c(F)c2)CC1 [Example 61, 1-{3-fluoro-4-[(sulfamoylamino)methyl]phenyl}-3-{[2-(4-methylpiperidin-1-yl)/-6-(trifluoromethyl)pyridin-3-yl]methyl}urea]",1 nM,
"CC1CCN(c2nc(C(F)(F)F)ccc2CNC(=O)C(C)c2ccc(F)c(CNS(C)(=O)=O)c2)CC1 (centres unmarked) [Example 66, 2-(4-fluoro-3-(methylsulfonamidomethyl)phenyl)-N-((2-(4-methylpiperidin-1-yl)-6-(trifluoromethyl)pyridin-3-yl)methyl)propanamide]",,"inhibition at 5 µM (compound at 5 μM, read-out: inhibition (as a percentage) Cap, (human being)): 58%"
N-(2-fluoro-5-(3-((2-(4-methylpiperidin-1-yl)-6-(trifluoromethyl)pyridin-3-yl)methyl)ureido)benzyl)methanesulfonamide [Example 65],,"inhibition (as a percentage) Cap, (human being) (compound at 5 μM): 12%@5 μM"

# Further lines, with some results ahead:
Ki,Molecule,also measured
55 nM,"CC1CCN(c2nc(C(F)(F)F)ccc2CNC(=O)C(C)c2ccc(CN(C)S(C)(=O)=O)c(F)c2)CC1 (centres unmarked) [Example 63, 2-(3-fluoro-4-((N-methylmethylsulfonamido)methyl)phenyl)-N-((2-(4-methylpiperidin-1-yl)-6-(trifluoromethyl)pyridin-3-yl)methyl)propanamide]",
4 nM,"CC1CCN(c2nc(C(F)(F)F)ccc2CNC(=O)C(C)c2ccc(CNS(N)(=O)=O)c(F)c2)CC1 (centres unmarked) [Example 64, 2-(3-fluoro-4-((sulfamoylamino)methyl)phenyl)-N-((2-(4-methylpiperidin-1-yl)-6-(trifluoromethyl)pyridin-3-yl)methyl)propanamide]",
